# Data as given in paper PMC8027415, “Plant resistome profiling in evolutionary old bog vegetation provides new clues to understand emergence of multi-resistance” (The ISME Journal, 2020).
# System: T1, Mm3 (β-lactamase from Moss metagenome clone 3; blaMm3)
# T1 construct: mix of tagged 35 kDa and 32 kDa species lacking tag
# Experiment: spectrophotometric hydrolysis at […] nm, initial rates
# Format: biochemical, uncultured bacterium
# Conditions: 20 mM sodium phosphate, 0.2 M NaCl, pH 7.4, 30 °C
Compound,Km (fitted with the Hill equation (half-saturation constant)) [µM],Km (fitted with the Michaelis-Menten equation) [µM]
CC1(C)S[C@@H]2[C@H](NC(=O)[C@H](N)c3ccccc3)C(=O)N2[C@H]1C(=O)O [ampicillin],271 ± 16.4,–
CC1(C)S[C@@H]2[C@H](NC(=O)C(C(=O)O)c3ccccc3)C(=O)N2[C@H]1C(=O)O (some centres unmarked) [carbenicillin],–,400 ± 42.7
